Where a name gives a salt, the structure may show the parent alone. Bridge positions count the residues as written; N and C are the ends. Square brackets hold non-standard residues; d marks the D form. Peptide text beside a SMILES is read from it. * marks the point of attachment. X1 = CC[C@H](C)CCCCC(=O)*; Dab = NCC[C@H](N)C(=O)O
Assays:
K. pneumoniae isolates = experiment: Dose-response study, thigh infection model, summary over K. pneumoniae isolates; assay type: in vivo, Klebsiella pneumoniae; conditions: mouse thigh infection
Protocol: (§1) Experiments were carried out in the Erasmus Laboratory Animal Science Centre in Rotterdam, The Netherlands in accordance with the EU Animal Directive 2010/63/EU 2010 directive[14] (licence number AVD101002016702) as described before,[15] with approval of the institutional Animal Welfare Body. Outbred female CD-1 mice obtained from Charles River Germany, weighing 20–25 g, 7–8 weeks old, were used in the experiments. The mice were housed under standard conditions with drink and feed supplied ad libitum.
Mice were rendered neutropenic by intraperitoneal injection of cyclophosphamide of 150 and 100 mg/kg, 4 days and 1 day before infection, respectively. On the day of infection, an overnight culture of the bacteria was diluted in fresh CAMHB and incubated at 37°C for 1 or 2 h depending on the growth rate of the strain. After incubation the inoculum was diluted in CAMHB or saline for the thigh and lung infection model, respectively, in order to obtain approximately 5.0 × 10^7 cfu/mL. Mice were then infected intramuscularly in each thigh (thigh infection model) or intranasally under isoflurane anaesthesia (lung infection model), with 0.05 mL of inoculum containing approximately 2.5 × 10^6 bacteria. Analgesia was given in the form of buprenorphine directly after infection, every 12 h.
(§2) For dose–response studies, a 6 hourly dosing regimen of 1–32 mg/kg was studied in the thigh infection model. Mice were infected with E. coli […], 15, 51 or 71 or K. pneumoniae ATCC 43816, 17, 58 or 74.
(§3) Animals were humanely euthanized 24 h (t = 24 h) after the first dose, unless the welfare of the animals necessitated earlier termination, following animal welfare regulations. Excised thighs were transferred to a pre-cooled 14 mL polypropylene tube containing 2 mL of PBS and were homogenized using a T25 ULTRA-TURRAX (IKA-Werke GmbH & Co, Staufen, Germany). A 10-fold dilution series was prepared and 3 × 10 μL was plated per dilution. The following day, colonies were counted and the number of cfu per thigh was calculated.
The drug effect was determined by the difference between the log10 cfu values at t = 0 h (mean value of two mice) and t = 24 h (value of individual mice) expressed as Δlog10 cfu. The fAUC/MIC, fCmax/MIC and %fT>MIC were determined based on the simulated time–concentration profiles over 24 h as derived in MicLab 2.71 (MEDIMATICS, Maastricht, The Netherlands) using 200 points per dosing interval.
(§4) A sigmoid maximum effect (Emax) model was fitted to the PK/PD index versus Δlog10 cfu data by non-linear regression, and static or a 1 log or 2 log kill effect were determined using GraphPad Prism 8.0 (GraphPad, Inc., San Diego, CA, USA). […]

[1] = system: four E. coli and four K. pneumoniae strains; experiment: Dose-response study, thigh infection model, summary over all eight isolates; assay type: in vivo, Escherichia coli, Klebsiella pneumoniae; conditions: q6h dosing, mouse thigh infection
Protocol: as §1
Mice were rendered neutropenic by intraperitoneal injection of cyclophosphamide of 150 and 100 mg/kg, 4 days and 1 day before infection, respectively. […]
Animals were humanely euthanized 24 h (t = 24 h) after the first dose, unless the welfare of the animals necessitated earlier termination, following animal welfare regulations. […] The following day, colonies were counted and the number of cfu per thigh was calculated.
The drug effect was determined by the difference between the log10 cfu values at t = 0 h (mean value of two mice) and t = 24 h (value of individual mice) expressed as Δlog10 cfu. […]
as §4

[2] = Non-specific binding to ultrafiltration filter; assay type: physicochemical; conditions: LC-MS/MS
Protocol: The binding of polymyxin B to plasma proteins was determined via ultrafiltration. Polymyxins have a tendency to non-specifically bind to different kinds of material, including ultrafiltration filters. Thus, to correct for polymyxin B loss on the filter, an experiment was performed in which ultrafiltrated (UF) phosphate buffer was spiked with multiple polymyxin B concentrations (ranging from 0.75 to 8 mg/L) and subsequently concentrations were measured. […] Using this relationship, the non-specific binding (NSB) for each measured polymyxin B UF concentration was calculated. Correction for the measured polymyxin B UF concentration using this NSB value was according to the following formula: polymyxin B UF Corrected Concentration = Measured polymyxin B UF Concentration × (1−NSB).
Polymyxin B concentrations in plasma, BAL and ultrafiltrates were determined by a validated LC-MS/MS method,[18] with a lower limit of quantification (LOQ) of 0.2 mg/L for plasma and 0.05 mg/L for BAL fluid and ultrafiltrates. […] The residues were dissolved in 0.1 mL of 0.1% formic acid in water and analysed by LC-MS/MS. […] Polymyxin B was analysed on an XBridge C18 column (5 µm, 2.1 × 150 mm; Waters). […] Calibration curves of polymyxin B ranged from 0.1 to 10 mg/L for plasma and ultrafiltrates, and were quantified with a quadratic regression mode. […]

[3] = Tolerability of subcutaneous dosing in infected neutropenic mice; assay type: in vivo
Protocol: Dose-fractionation studies were performed for E. coli ATCC 25922 and K. pneumoniae 104 in the thigh infection model. Two hours after infection, treatment with polymyxin B was administered subcutaneously over 24 h at the following dosing regimens: 4–128 mg/kg q6h [total daily dose (TDD) 16–512 mg/kg]; 8–256 mg/kg q12h (TDD 16–512 mg/kg); 256–512 mg/kg q24h (TDD 256–512 mg/kg).
as §2, §3

## CC[C@H](C)CCCCC(=O)N[C@@H](CCN)C(=O)N[C@H](C(=O)N[C@@H](CCN)C(=O)N[C@H]1CCNC(=O)[C@H]([C@@H](C)O)NC(=O)[C@H](CCN)NC(=O)[C@H](CCN)NC(=O)[C@H](CC(C)C)NC(=O)[C@@H](Cc2ccccc2)NC(=O)[C@H](CCN)NC1=O)[C@@H](C)O [polymyxin B, Polymyxin B sulphate salt] (X1-[Dab]T[Dab][Dab][Dab][dF]L[Dab][Dab]T; lactam 4-C)
K. pneumoniae isolates; K. pneumoniae isolates
  Isolates in which 1 log kill was found: 1/4
K. pneumoniae isolates; average of four K. pneumoniae isolates, q6h
  Target value of fAUC/MIC, static effect, average: 22.4
K. pneumoniae isolates; median of four K. pneumoniae isolates, q6h
  Target value of fAUC/MIC, static effect, median: 11.6
K. pneumoniae isolates; range over four K. pneumoniae isolates, q6h
  Target value of fAUC/MIC, static effect, range: 5.9–60.5
[1]
  Isolates in which a 1 log kill effect was observed: 3/8
  Isolates in which a 2 log kill effect was observed: 1/8
[2]; phosphate buffer spiked at 0.75 mg/L
  Non-specific binding (NSB): 77% ± 8.3%
[2]; phosphate buffer spiked at 8 mg/L
  Non-specific binding (NSB): 20% ± 0.6%
[3]; 32 mg/kg q6h (TDD 128 mg/kg) s.c.
  Mice in which the last (fourth) administration was not tolerated: 2/4
[3]; doses >64 mg/kg s.c., dose fractionation studies, neutropenic infected mice
  Tolerability: not tolerated
